Experimental data reported in publication PMC9605737, “Identification of 6ω-cyclohexyl-2-(phenylamino carbonylmethylthio)pyrimidin-4(3H)-ones targeting the ZIKV NS5 RNA dependent RNA polymerase” (Frontiers in Chemistry, 2022).

Assays:
ZIKV [1] = experiment: Plaque assay, anti-ZIKV activity in Vero cells; assay type: cell-based, Zika virus
Method: Initially, the novel acetylarylamine-S-DACOs 4a-z were tested for their cytotoxicity and anti-ZIKV activity in Vero cells by plaque formation according to previously detailed procedure ([Xu et al., 2017]).
Vero cells were inoculated in a 12-well plate at 3 × 10^5 cells/ml and cultured overnight, the medium was discarded and cells were washed with PBS, then the ZIKV (MOI = 0.5) was added to infect at 37°C for 2 h. The cells were washed with PBS, and then a mixture of DMEM supplemented with 4% FBS and 2% low-melting agarose (Amresco, United States) was overlaid on the cells. Next, the cells were fixed with 4% paraformaldehyde for 15 min at 5d post-infection (hpi), washed twice with PBS and stained with 0.8% crystal violet for 10 min. Finally, an enzyme-linked fluorescence spot spectrometer (CTL, United States) was used for image acquisition.

[2] = MTT cytotoxicity assay in Vero cells; assay type: cell-based, African green monkey; settings: African green monkey, triplicate, >200 = highest soluble concentration not reaching 50% cytotoxicity
Method: MTT assay was used to detect the toxicity of the compound. Cells were seeded in 96-well plates and cultured overnight. Compounds with different concentrations were added and incubated for 96 h. Then, 20 μl of 5 mg/ml MTT (Sigma-Aldrich, United States) solution was added to each well and kept at 37°C for 4 h. Subsequently, 100 μl of 12% SDS-50% DMF (Sigma-Aldrich, United States) solution was added and incubated overnight at 37°C. After the crystalline formamidine was completely dissolved, the optical density (OD) value was measured using a microplate reader (BioTek, United States) with a wavelength of 570 nm and a reference wavelength of 630 nm.
The 50% effective concentration (EC50) and 50% cytotoxic concentration (CC50) of the compound were calculated according to the Reed and Muench method, inhibition rate of ZIKV RNA yield- [(1-drug treatment/positive control) × 100]. The data and graphs were processed using GraphPad Prism8 software, expressed as mean ± standard deviation (Mean ± SD), comparison between groups using ANOVA, p < 0.05 was considered statistically significant.

ZIKV RNA [3] = experiment: qRT-PCR viral load in supernatant of ZIKV-infected Vero cells; assay type: cell-based; settings: Zika virus, read-out: EC50, inhibition of ZIKV RNA replication
Text: (§1) In order to re-verify the inhibitory effect of 4w on ZIKV at the molecular level, we used ZIKV to infect cell lines of different origins (A549, Vero, Huh7 cells) and then treated with 4w in a concentration gradient. The change of viral load in the supernatant of cells after treatment was detected by qRT-PCR method.
(§2) Cells were infected with ZIKV SZ-WIV01 and then treated with 4w. The viral load in the supernatant was detected by Quantitative real-time polymerase chain reaction (qRT-PCR) at in different time periods after infection. Then the RNA from culture supernatant was extracted using the EasyPure ® Viral DNA/RNA Kit (TransGen Biotech, China) following the manufacturer’s instructions. Intracellular RNA extraction was according to trizol method. A one-step qRT-PCR kit RNA-direct™ Realtime PCR Master Mix (TOYOBO, Japan) and TaqMan probe were used to quantify the viral RNA produced. The primers (NS5 ZIKV 1086F: 5′-CCGCTGCCCAACACAAG-3′ and NS5 ZIKV 1086R: 3′-[…] C-5′) and probe (5′-FAM-[…]-TAMRA -3′) were used for amplification of the ZIKV NS5 region. A standard curve of the serial dilutions was used to quantify the viral RNA yield.
(§3) The 50% effective concentration (EC50) and 50% cytotoxic concentration (CC50) of the compound were calculated according to the Reed and Muench method, inhibition rate of ZIKV RNA yield- [(1-drug treatment/positive control) × 100]. […]

ZIKV RNA [4] = experiment: qRT-PCR viral load in supernatant of ZIKV-infected A549 cells; assay type: cell-based; settings: Zika virus, A549, read-out: EC50, inhibition of ZIKV RNA replication
Text: as §1, §2, §3

ZIKV RNA [5] = experiment: qRT-PCR viral load in supernatant of ZIKV-infected Huh7 cells; assay type: cell-based; settings: Zika virus, Huh-7, read-out: EC50, inhibition of ZIKV RNA replication
Text: as §1, §2, §3

ZIKV E protein = experiment: Western blot of ZIKV E protein in infected Vero cells; assay type: cell-based, Zika virus; settings: 12.5 μM, 48 h
Text: ZIKV E protein is one of the most important structural proteins of ZIKV, which plays an important role in the correct assembly of the virus and evasion of the host’s innate immunity ([Jaimipuk et al., 2022]). We have verified that 4w has a significant inhibitory effect on ZIKV-infected cell lines from different sources at the molecular level, but it is unknown whether it has the same antiviral effect at the protein level. Therefore, in order to explore the inhibitory effect of 4w on ZIKV protein level, we added serially diluted 4w to ZIKV-infected Vero cells for 48 h, collected the total protein for WB experiments, and then detected the effect of 4w on ZIKV E and NS5 protein. At the same time, the inhibitory effect of 4w on ZIKV E protein was verified again by immunofluorescence experiment.
Vero cells were infected with ZIKV (MOI = 1) at 37°C for 2 h. Next, the different amounts of 4w were added to continue culturing for 48 h to extract the total protein in the cells. The total protein was separated in sodium dodecyl sulfate polyacrylamide gel electrophoresis (SDS-PAGE). […] The antibody signal was recorded and quantified using the Tanon-5200 Multi Imaging System.

ZIKV [6] = experiment: Four different methods of drug treatment (virus, co-, pre-, post-treatment); assay type: cell-based, Zika virus; settings: viral load
Text: ZIKV RdRp was a important domain in the C-terminal of ZIKV NS5, and plays a crucial role in the replication and synthesis of RNA in the life cycle of ZIKV. In order to further verify that 4w activity is related to RdRp domain inhibition, we examined the effect of 4w on the replication cycle of ZIKV using four different drug treatments and time-sharing withdrawal experiments (Figure 7A).
As mentioned above ([Duan et al., 2019]; [Zou et al., 2020]), according to the different life cycles of the ZIKV, four different drug treatment methods are set: virus treatment, co-treatment, pre-treatment, post-treatment. For virus treatment, the ZIKV and 4w were pre-treated in a 4°C refrigerator for 1 h, then the treated virus was added to the cells for 2 h of infection, and the virus was discarded, washed twice with PBS, and added to maintenance medium (containing 2% FBS DMEM high sugar medium), continue to culture at 37°C, 5% CO2 incubator for 3 days, collect the cell supernatant for RT-PCR and plaque experiments. For co-treatment: add 4w and ZIKV to the cells at the same time, incubate at 37°C, 5% CO2 for 2 h, then remove the virus and compounds, add maintenance medium for 3 days. Pre-treatment: Compound 4w and cells were treated at 4°C for 1 h, then 4w was removed, ZIKV was added for 2 h, remove virus and the maintenance medium was added to continue culturing for 3 days. […]

CCc1c(C2CCCCC2)nc(SCC(=O)Nc2cc(F)cc(F)c2)[nH]c1=O [Compound 4w, 2-{[4-cyclohexyl-5-ethyl-6-oxo-1,6-dihydropyrimidin-2-yl]thio}-N-(3,5-difluorophenyl)acetamide]
SI (selectivity index, CC50/EC50 ratio) (ZIKV [1]): >26
EC50 (ZIKV [1]; Zika virus, plaque assay, independently in triplicate, read-out: EC50 (anti-ZIKV activity, plaque formation)): 7.65 ± 0.31 µM
CC50 at 96 h [2]: > 200 µM
EC50 (ZIKV RNA [3]): 6.87 ± 1.21 µM
EC50 (ZIKV RNA [4]): 5.18 ± 0.69 µM
EC50 (ZIKV RNA [5]): 6.76 ± 0.52 µM
inhibition of ZIKV E protein expression (WB) (ZIKV E protein): significantly inhibit
stage of the ZIKV replication cycle acted on (ZIKV [6]): mainly acts on the post-entry stage of the virus
